The text below walks through data of patent publication US10023593B2, “ALK kinase inhibitor, and preparation method and uses thereof” (BEIJING PEARL BIOTECHNOLOGY LIMITED LIABILITY COMPANY, priority 2014, dated 2018).

The target in one experiment is T1, Wild Type ALK kinase (Homo sapiens, UniProt Q9UM73).
T1 construct: purchased Sino-US Crown Bioscience, Inc. batch number ALK 20110607
The experiment can be described thus: HTRF KinEASE-TK assay, inhibitory activity on wild type ALK kinase. Type of experiment: biochemical. As to conditions: wild type ALK 1 ng/μl, substrate 1 μM, 30° C. 35 minutes, read-out: Inhibition on ALK kinases (wildtype), IC50. The gist of the method:
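ALK kinase at 1 ng/μl and substrate at 1 μM were reacted with compound (1% DMSO) in buffer with 5 mM MgCl2 and 1 mM DTT for 35 min at 30 °C. HTRF detection used the 665/615 ratio, normalised to no-compound wells and to 10.4 μM LDK-378 wells. IC50 came from a concentration-response fit.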
(In TR-FRET formats the signal depends on donor and acceptor labels being close together.)

The subject of a further experiment is NCI-H2228 cell line. The experiment can be described thus: CellTiter-Glo cell proliferation inhibition on NCI-H2228 cell line. Type of experiment: cell-based. The note with it: Homo sapiens, NCI-H2228 cells, 5000 cells/well, 4 days drug treatment. The gist of the method:
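NCI-H2228 cells, 5000/well in RPMI-1640 + 10% FBS, treated with compounds 2 h after seeding (0.5% DMSO final) for 4 days at 37° C. Viability by CellTiter-Glo luminescence; inhibition relative to DMSO control, IC50 from curve fit.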
On the technique in general: In ATP-based viability assays light output follows the ATP content of the culture.

The next experiment addresses T2, cytochrome P450 1A2 (Homo sapiens, UniProt P05177).
T2 sequence (P05177 1-516): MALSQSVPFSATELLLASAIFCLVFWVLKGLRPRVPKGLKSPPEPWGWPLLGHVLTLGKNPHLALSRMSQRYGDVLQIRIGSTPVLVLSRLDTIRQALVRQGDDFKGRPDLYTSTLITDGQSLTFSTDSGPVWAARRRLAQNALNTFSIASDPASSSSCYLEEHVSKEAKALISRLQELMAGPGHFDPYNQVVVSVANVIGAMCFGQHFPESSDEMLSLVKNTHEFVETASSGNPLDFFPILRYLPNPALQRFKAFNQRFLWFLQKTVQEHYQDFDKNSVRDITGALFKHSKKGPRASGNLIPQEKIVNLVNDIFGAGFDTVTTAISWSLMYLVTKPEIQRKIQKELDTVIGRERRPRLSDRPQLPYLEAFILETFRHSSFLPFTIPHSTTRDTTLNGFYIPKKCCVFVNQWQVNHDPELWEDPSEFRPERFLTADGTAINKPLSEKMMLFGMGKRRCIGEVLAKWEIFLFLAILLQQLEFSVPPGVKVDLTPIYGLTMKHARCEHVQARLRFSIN
Nature of the experiment: Inhibitory activity on cytochrome P450 1A2. Type of experiment: in vitro ADME. As to conditions: no significant inhibition.

The next experiment deals with cytochrome P450 2C19 (Homo sapiens, UniProt P33261). The experiment can be described thus: Inhibitory activity on cytochrome P450 2C19. As to conditions: no significant inhibition. Type of experiment: in vitro ADME.
cytochrome P450 2C19, sequence (P33261 whole entry): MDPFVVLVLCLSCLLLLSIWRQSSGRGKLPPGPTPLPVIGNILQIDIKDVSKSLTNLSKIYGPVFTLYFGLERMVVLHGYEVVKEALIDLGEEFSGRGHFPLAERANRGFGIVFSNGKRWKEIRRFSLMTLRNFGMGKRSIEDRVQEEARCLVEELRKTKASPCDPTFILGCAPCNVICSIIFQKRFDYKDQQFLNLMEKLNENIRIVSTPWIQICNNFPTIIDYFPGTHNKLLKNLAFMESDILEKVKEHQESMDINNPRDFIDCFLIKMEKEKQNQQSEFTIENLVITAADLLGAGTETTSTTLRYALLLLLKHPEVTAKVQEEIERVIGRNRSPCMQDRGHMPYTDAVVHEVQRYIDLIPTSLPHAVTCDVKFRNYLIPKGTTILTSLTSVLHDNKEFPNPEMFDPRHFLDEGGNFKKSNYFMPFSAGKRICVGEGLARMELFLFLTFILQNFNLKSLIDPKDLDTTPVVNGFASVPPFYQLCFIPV
For a further experiment, the target named is cytochrome P450 2D6 (Homo sapiens, UniProt P10635). Nature of the experiment: Inhibitory activity on cytochrome P450 2D6. Type of experiment: in vitro ADME. As to conditions: no significant inhibition.
cytochrome P450 2D6, sequence (P10635 whole entry): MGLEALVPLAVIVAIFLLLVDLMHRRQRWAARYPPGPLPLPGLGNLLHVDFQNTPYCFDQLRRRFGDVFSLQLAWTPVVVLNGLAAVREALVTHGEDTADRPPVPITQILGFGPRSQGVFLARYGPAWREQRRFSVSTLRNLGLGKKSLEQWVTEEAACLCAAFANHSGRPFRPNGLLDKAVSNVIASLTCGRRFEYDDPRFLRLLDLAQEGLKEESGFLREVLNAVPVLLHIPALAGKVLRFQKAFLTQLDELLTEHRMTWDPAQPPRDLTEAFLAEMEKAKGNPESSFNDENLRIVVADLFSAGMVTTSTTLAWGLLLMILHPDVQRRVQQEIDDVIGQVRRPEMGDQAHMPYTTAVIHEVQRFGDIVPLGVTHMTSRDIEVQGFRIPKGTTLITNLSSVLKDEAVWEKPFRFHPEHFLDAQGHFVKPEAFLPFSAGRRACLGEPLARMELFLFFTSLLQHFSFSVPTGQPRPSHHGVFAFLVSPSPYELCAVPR
In a further experiment the target is cytochrome P450 3A4 (Homo sapiens, UniProt P08684). Nature of the experiment: Inhibitory activity on cytochrome P450 3A4. Type of experiment: in vitro ADME. The note with it: no significant inhibition.
cytochrome P450 3A4, sequence (P08684 whole entry): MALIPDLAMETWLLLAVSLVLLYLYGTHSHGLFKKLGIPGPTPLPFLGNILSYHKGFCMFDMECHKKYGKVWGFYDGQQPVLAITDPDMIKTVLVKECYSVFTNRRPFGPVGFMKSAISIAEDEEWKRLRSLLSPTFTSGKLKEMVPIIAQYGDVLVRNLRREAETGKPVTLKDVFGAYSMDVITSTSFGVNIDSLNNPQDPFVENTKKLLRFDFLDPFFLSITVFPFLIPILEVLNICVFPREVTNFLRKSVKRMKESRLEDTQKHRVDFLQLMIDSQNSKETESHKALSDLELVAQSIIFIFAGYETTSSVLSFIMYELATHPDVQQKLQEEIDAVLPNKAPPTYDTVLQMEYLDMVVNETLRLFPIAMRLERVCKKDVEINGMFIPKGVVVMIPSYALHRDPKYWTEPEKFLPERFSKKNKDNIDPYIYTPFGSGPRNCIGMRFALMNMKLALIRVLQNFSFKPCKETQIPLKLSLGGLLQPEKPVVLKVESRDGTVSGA

Bounds are passed on as bounds.

T1 sequence (Q9UM73 19-1620): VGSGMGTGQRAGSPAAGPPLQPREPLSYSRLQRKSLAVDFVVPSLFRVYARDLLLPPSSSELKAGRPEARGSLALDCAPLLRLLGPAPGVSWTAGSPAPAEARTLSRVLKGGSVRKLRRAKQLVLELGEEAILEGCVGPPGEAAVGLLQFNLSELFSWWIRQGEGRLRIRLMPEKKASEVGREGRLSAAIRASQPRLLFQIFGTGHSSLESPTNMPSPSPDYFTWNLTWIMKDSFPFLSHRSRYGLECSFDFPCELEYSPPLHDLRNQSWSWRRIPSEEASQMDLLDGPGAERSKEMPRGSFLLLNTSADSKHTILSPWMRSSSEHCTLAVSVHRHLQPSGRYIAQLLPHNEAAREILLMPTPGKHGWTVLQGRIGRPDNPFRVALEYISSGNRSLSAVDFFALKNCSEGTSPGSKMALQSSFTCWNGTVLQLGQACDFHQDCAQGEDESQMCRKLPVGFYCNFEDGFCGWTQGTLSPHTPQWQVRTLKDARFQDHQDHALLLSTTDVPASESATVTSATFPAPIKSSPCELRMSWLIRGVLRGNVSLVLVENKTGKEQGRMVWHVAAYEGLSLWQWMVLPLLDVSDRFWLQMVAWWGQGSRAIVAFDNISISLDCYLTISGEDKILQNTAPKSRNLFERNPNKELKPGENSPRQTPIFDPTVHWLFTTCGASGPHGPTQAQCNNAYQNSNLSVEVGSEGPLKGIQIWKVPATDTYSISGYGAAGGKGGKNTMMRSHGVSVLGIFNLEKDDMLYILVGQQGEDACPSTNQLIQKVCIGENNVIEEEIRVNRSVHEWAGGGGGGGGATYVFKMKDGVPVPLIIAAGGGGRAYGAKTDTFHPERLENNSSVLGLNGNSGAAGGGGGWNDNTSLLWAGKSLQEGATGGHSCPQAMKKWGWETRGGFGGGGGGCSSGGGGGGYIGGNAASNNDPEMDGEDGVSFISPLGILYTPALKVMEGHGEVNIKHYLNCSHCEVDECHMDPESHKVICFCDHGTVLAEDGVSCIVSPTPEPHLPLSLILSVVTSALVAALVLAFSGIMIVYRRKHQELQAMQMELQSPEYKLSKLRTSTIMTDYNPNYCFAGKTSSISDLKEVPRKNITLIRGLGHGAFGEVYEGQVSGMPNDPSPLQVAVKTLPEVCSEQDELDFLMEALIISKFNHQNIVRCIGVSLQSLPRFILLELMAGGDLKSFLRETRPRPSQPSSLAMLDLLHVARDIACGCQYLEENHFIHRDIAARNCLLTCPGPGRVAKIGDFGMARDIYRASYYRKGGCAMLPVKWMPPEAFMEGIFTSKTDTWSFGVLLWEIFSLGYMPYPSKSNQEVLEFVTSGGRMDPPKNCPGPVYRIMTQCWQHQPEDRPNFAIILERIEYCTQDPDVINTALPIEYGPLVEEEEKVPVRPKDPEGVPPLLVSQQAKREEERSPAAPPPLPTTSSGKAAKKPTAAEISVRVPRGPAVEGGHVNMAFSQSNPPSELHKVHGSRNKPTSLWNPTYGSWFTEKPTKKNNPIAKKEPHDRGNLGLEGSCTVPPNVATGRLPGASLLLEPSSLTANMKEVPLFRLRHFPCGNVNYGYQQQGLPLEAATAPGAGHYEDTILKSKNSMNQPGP

In the case of `Cc1cc(Nc2ncc(Cl)c(Nc3cn(C)nc3S(=O)(=O)C(C)C)n2)c(OC2CC2)cc1C1CCN(C(=O)CC#N)CC1` [Final product 166, 1-cyano acetyl-4-(4-(5-chloro-4-(3-(isopropylsulfonyl)-1-methyl-1H-pyrazol-4-amino)pyrimidin-2-amine)-5-cyclopropoxy-2-methylphenyl)piperidine], the IC50 was 0.003 µM on Wild Type ALK kinase; 0.042 µM with NCI-H2228 cell line (NCI-H2228, 96 h); above 10 µM on cytochrome P450 1A2; above 10 µM on cytochrome P450 2C19; above 10 µM on cytochrome P450 2D6; above 10 µM at cytochrome P450 3A4.
Regarding `CC(=O)N1CCN([C@H]2CC[C@H](c3cc(OC4CC4)c(Nc4ncc(Cl)c(Nc5cn(C)nc5S(=O)(=O)C(C)C)n4)cc3C)CC2)CC1` [Final product 204], the IC50 at Wild Type ALK kinase is 0.007 µM; in the experiment on NCI-H2228 cell line (NCI-H2228, 96 h), 0.076 µM; on cytochrome P450 1A2, above 10 µM; on cytochrome P450 2C19, above 10 µM; at cytochrome P450 2D6 it was above 10 µM; at cytochrome P450 3A4, above 10 µM.
Regarding `CC(C)CS(=O)(=O)c1nn(C)cc1Nc1nc(Nc2ccc(C3CCN(C)CC3)cc2OC2CC2)ncc1Cl` [Final product 43], the IC50 at Wild Type ALK kinase is 0.005 µM; in the experiment with NCI-H2228 cell line (NCI-H2228, 96 h), 0.125 µM; on cytochrome P450 1A2, above 10 µM; at cytochrome P450 2C19, above 10 µM; against cytochrome P450 2D6, above 10 µM; on cytochrome P450 3A4 it was above 10 µM.
Take `Cc1cc(Nc2ncc(Cl)c(Nc3cn(C)nc3S(=O)(=O)C(C)C)n2)c(OC2CC2)cc1C1CCN(S(C)(=O)=O)CC1` [Final product 167, 5-chloro-N^2-(2-cyclopropoxy-5-methyl-4-(1-methanesulfonyl-piperidin-4-yl)-phenyl)-N^4-(3-(isopropylsulfonyl)-1-methyl-1H-pyrazol-4-yl)pyrimidin-2,4-diamine]: the IC50 at Wild Type ALK kinase is 0.009 µM; in the experiment on NCI-H2228 cell line (NCI-H2228, 96 h), 0.059 µM; against cytochrome P450 1A2, above 10 µM; at cytochrome P450 2C19, above 10 µM; at cytochrome P450 2D6, above 10 µM; at cytochrome P450 3A4, above 10 µM.
As for `CC(C)S(=O)(=O)c1nn(C)cc1Nc1nc(Nc2ccc(C3CCN(C)CC3)cc2OC2CC2)ncc1Cl` [Final product 40], the IC50 was 0.003 µM at Wild Type ALK kinase; 0.036 µM with NCI-H2228 cell line (NCI-H2228, 96 h); above 10 µM against cytochrome P450 1A2; above 10 µM on cytochrome P450 2C19; above 10 µM at cytochrome P450 2D6; above 10 µM against cytochrome P450 3A4.
For the molecule `Cc1cc(Nc2ncc(Cl)c(Nc3cn(C)nc3S(=O)(=O)C(C)C)n2)c(OC2CC2)cc1C1CCN(CCO)CC1` [Final product 133, 2-(4-(4-(5-chloro-4-(3-(isopropylsulfonyl)-1-methyl-1H-pyrazol-4-amino)pyrimidin-2-amino)-5-cyclopropoxy-2-methylphenyl)piperidin-1-yl) ethanol], the IC50 was 0.002 µM on Wild Type ALK kinase; 0.041 µM with NCI-H2228 cell line (96 h); above 10 µM at cytochrome P450 1A2; above 10 µM on cytochrome P450 2C19; above 10 µM at cytochrome P450 2D6; above 10 µM against cytochrome P450 3A4.
In the case of `CC(C)S(=O)(=O)c1nn(C2CC2)cc1Nc1nc(Nc2cc(F)c(C3CCN(C)CC3)cc2OC2CC2)ncc1Cl` [Final product 46], the IC50 at Wild Type ALK kinase is 0.002 µM; in the experiment with NCI-H2228 cell line (NCI-H2228, 96 h) it was 0.127 µM; on cytochrome P450 1A2, above 10 µM; on cytochrome P450 2C19, above 10 µM; at cytochrome P450 2D6, above 10 µM; against cytochrome P450 3A4, above 10 µM.
In the case of `Cc1cc(Nc2ncc(Cl)c(Nc3cn(C)nc3S(=O)(=O)C(C)C)n2)c(OC2CC2)cc1C1CCN(C2COC2)CC1` [Final product 156], the IC50 on Wild Type ALK kinase is 0.01 µM; with NCI-H2228 cell line (NCI-H2228, 96 h), 0.044 µM; against cytochrome P450 1A2, above 10 µM; against cytochrome P450 2C19 it was above 10 µM; on cytochrome P450 2D6, above 10 µM; against cytochrome P450 3A4, above 10 µM.
Consider `CC(C)S(=O)(=O)c1nn(C)cc1Nc1nc(Nc2cc(Cl)c(C3CCN(C)CC3)cc2OC2CC2)ncc1Cl` [Final product 47], for which the half-inhibitory concentration (IC50) on Wild Type ALK kinase was 0.004 µM; in the experiment with NCI-H2228 cell line (NCI-H2228, 96 h), 0.103 µM; against cytochrome P450 1A2, above 10 µM; on cytochrome P450 2C19, above 10 µM; at cytochrome P450 2D6 it was above 10 µM; against cytochrome P450 3A4, above 10 µM.
`Cc1cc(Nc2ncc(Cl)c(Nc3cn(C)nc3S(=O)(=O)C(C)C)n2)c(OC2CC2)cc1C1CCN(C(=O)C(F)(F)F)CC1` [Final product 161, 1-trifluoroacetyl-4-(4-(5-chloro-4-(3-(isopropylsulfonyl)-1-methyl-1H-pyrazol-4-amino)pyrimidin-2-amine)-5-cyclopropoxy-2-methylphenyl)piperidine]: the IC50 at Wild Type ALK kinase was 0.032 µM; in the experiment with NCI-H2228 cell line (NCI-H2228, 96 h) it was 0.047 µM; against cytochrome P450 1A2, above 10 µM; against cytochrome P450 2C19, above 10 µM; at cytochrome P450 2D6 it was above 10 µM; against cytochrome P450 3A4, above 10 µM.
Take `Cc1cc(Nc2ncc(Cl)c(Nc3cn(C)nc3S(=O)(=O)C(C)C)n2)c(OC2CC2)cc1C1CC(C)N(C)C(C)C1` (stereo not drawn) [Final product 95]: the IC50 is 0.002 µM at Wild Type ALK kinase; 0.026 µM with NCI-H2228 cell line (NCI-H2228, 96 h); above 10 µM at cytochrome P450 1A2; above 10 µM on cytochrome P450 2C19; above 10 µM on cytochrome P450 2D6; above 10 µM against cytochrome P450 3A4.
Take `Cc1cc(Nc2ncc(Cl)c(Nc3cn(C)nc3S(=O)(=O)C(C)C)n2)c(OC2CC2)cc1C1CCN(CCN(C)C)CC1` [Final product 146, 5-chloro-N^2-(2-cyclopropoxy-4-(1-(2-(dimethylamino)ethyl)piperidin-4-yl)-5-methylphenyl)-N^4-(3-(isopropylsulfonyl)-1-methyl-1H-pyrazol-4-yl)-pyrimidin-2,4-diamine]: the IC50 is 0.002 µM at Wild Type ALK kinase; 0.199 µM with NCI-H2228 cell line (96 h); above 10 µM against cytochrome P450 1A2; above 10 µM against cytochrome P450 2C19; above 10 µM against cytochrome P450 2D6; above 10 µM against cytochrome P450 3A4.
With `CC(=O)N1CCC(c2cc(OC3CC3)c(Nc3ncc(Cl)c(Nc4cn(C)nc4S(=O)(=O)C(C)C)n3)cc2C)CC1` [Final product 160, 1-acetyl-4-(4-(5-chloro-4-(3-(isopropylsulfonyl)-1-methyl-1H-pyrazol-4-amino)pyrimidin-2-amine)-5-cyclopropoxy-2-methylphenyl)piperidine], the half-inhibitory concentration (IC50) at Wild Type ALK kinase was 0.007 µM; with NCI-H2228 cell line (NCI-H2228, 96 h), 0.035 µM; against cytochrome P450 1A2, above 10 µM; against cytochrome P450 2C19, above 10 µM; against cytochrome P450 2D6 it was above 10 µM; at cytochrome P450 3A4 it was above 10 µM.

By IC50 is commonly meant the concentration at which inhibition is half-maximal.
